# Measurements reported in patent US6667335B2, “Imidazole derivatives” (Hoffmann-La Roche Inc., priority 2001, dated 2003).
row,melting point,SMILES
1,196 to 197 °C,CCc1nccn1Cc1cn(-c2ccc([N+](=O)[O-])cc2)cn1.Cl.Cl
2,245 to 246 °C,Cl.Cl.O=[N+]([O-])c1ccc(-n2cnc(Cn3ccnc3)c2)cc1
3,202 to 204 °C (dec.),CSc1nccn1Cc1cn(-c2ccc(Cl)c(C)c2)cn1.Cl.Cl
4,> 200 °C (dec.),CSc1cccc(-n2cnc(Cn3ccnc3C)c2)c1.Cl.Cl
5,233 to 234 °C,Cl.Cl.FC(F)(F)Oc1cccc(-n2cnc(Cn3ccnc3)c2)c1
6,214 to 216 °C,Cl.Cl.c1cn(Cc2cn(-c3ccc4c(c3)CCC4)cn2)cn1
7,205 °C (dec.),CCc1nccn1Cc1cn(-c2cccc(C(C)(C)C)c2)cn1.Cl.Cl
8,> 200 °C (dec.),CC(C)(C)c1cccc(-n2cnc(Cn3ccnc3)c2)c1.Cl.Cl
9,> 250 °C,CCc1nccn1Cc1cn(-c2ccc(OC(F)(F)F)c(Cl)c2)cn1.Cl.Cl
10,212 to 213 °C,Cl.Cl.FC(F)(F)Oc1ccc(-n2cnc(Cn3ccnc3)c2)cc1Cl
11,> 250 °C,CCc1nccn1Cc1cn(-c2ccc(C)c(C)c2)cn1.Cl.Cl
12,220 to 222 °C,Cc1nccn1Cc1cn(-c2cccc(OC(F)F)c2)cn1.Cl.Cl
13,205 to 206 °C,Cl.Cl.FC(F)Oc1cccc(-n2cnc(Cn3ccnc3)c2)c1
14,219 to 220 °C,CCc1nccn1Cc1cn(-c2cccc(C(F)F)c2)cn1.Cl.Cl
15,216 to 217 °C,Cl.Cl.FC(F)c1cccc(-n2cnc(Cn3ccnc3)c2)c1
16,> 250 °C,CNc1nccn1Cc1cn(-c2ccc(Cl)c(Cl)c2)cn1.Cl
17,> 180 °C (dec.),CNc1nccn1Cc1ncn(-c2ccc(Cl)c(Cl)c2)c1CO.Cl
18,> 200 °C (dec.),Cc1nccn1Cc1cn(-c2cc(F)cc(Br)c2)cn1.Cl.Cl
19,249 to 251 °C,Cc1ccc(-n2cnc(Cn3ccnc3C)c2)cc1C.Cl.Cl
20,> 200 °C (dec.),Cl.Cl.Fc1cc(Br)cc(-n2cnc(Cn3ccnc3)c2)c1
21,237 to 239 °C (dec.),CCc1nccn1Cc1cn(-c2ccc3c(c2)OC(F)(F)O3)cn1.Cl.Cl
22,> 250 °C,Cc1nccn1Cc1cn(-c2ccc3c(c2)OC(F)(F)O3)cn1.Cl.Cl
23,214 to 215 °C,CCc1nccn1Cc1cn(-c2ccc(SC(F)(F)F)c(Cl)c2)cn1.Cl.Cl
24,195 to 198 °C,Cc1nccn1Cc1cn(-c2ccc(SC(F)(F)F)c(Cl)c2)cn1.Cl.Cl
25,244 to 245 °C,Cl.Cl.FC(F)(F)Sc1ccc(-n2cnc(Cn3ccnc3)c2)cc1Cl

row,melting point,SMILES
1,> 250 °C,Cc1nccn1Cc1cn(-c2cc3ccccc3cn2)cn1.Cl.Cl
2,216 to 218 °C,CCc1nccn1Cc1cn(-c2ccc(OC(F)(F)F)cc2)cn1.Cl.Cl
3,183 to 185 °C,CCc1nccn1Cc1cn(-c2ccc(SC(F)(F)F)cc2)cn1.Cl.Cl
4,249 to 250 °C,Cc1nccn1Cc1cn(-c2ccc(SC(F)(F)F)cc2)cn1.Cl.Cl
5,> 250 °C,Cc1ccc(-n2cnc(Cn3ccnc3C)c2)cc1.Cl.Cl
6,228 to 229 °C,Cc1ccc(-n2cnc(Cn3ccnc3)c2)cc1.Cl.Cl
7,242 to 243 °C,Cc1cc(-n2cnc(Cn3ccnc3)c2)ccc1F.Cl.Cl
8,161 to 162 °C,CCc1nccn1Cc1cn(-c2ccc(SC)cc2)cn1.Cl.Cl
9,233 to 234 °C,CSc1ccc(-n2cnc(Cn3ccnc3)c2)cc1.Cl.Cl
10,218 to 220 °C,Cc1nccn1Cc1cn(-c2cccc(C(F)(F)F)c2)cn1.Cl.Cl
11,216 to 218 °C,CCc1nccn1Cc1cn(-c2cccc(C(F)(F)F)c2)cn1.Cl.Cl
12,> 246 °C (dec.),Cl.Cl.Fc1ccc(-n2cnc(Cn3ccnc3)c2)cc1C(F)(F)F
13,> 250 °C,CCc1nccn1Cc1cn(-c2ccc(C)c(C(F)(F)F)c2)cn1.Cl.Cl
14,> 250 °C,Cc1ccc(-n2cnc(Cn3ccnc3)c2)cc1C(F)(F)F.Cl.Cl
15,244 to 246 °C (dec.),CCc1nccn1Cc1cn(-c2ccc(Cl)c(OC)c2)cn1.Cl.Cl
16,> 250 °C,COc1cc(-n2cnc(Cn3ccnc3C)c2)ccc1Cl.Cl.Cl
17,> 220 °C (dec.),COc1cc(-n2cnc(Cn3ccnc3C)c2)ccc1F.Cl.Cl
18,200 to 201 °C,CCc1nccn1Cc1cn(-c2ccc(Cl)cc2)cn1.Cl.Cl
19,228 to 229 °C,Cl.Cl.Clc1ccc(-n2cnc(Cn3ccnc3)c2)cc1
20,> 250 °C,CCc1nccn1Cc1cn(-c2ccc3c(c2)OCO3)cn1.Cl.Cl
21,197 to 198 °C,Cl.Cl.c1cn(Cc2cn(-c3ccc4c(c3)OCO4)cn2)cn1
22,> 250 °C,Cc1ccc(-n2cnc(Cn3ccnc3C)c2)cc1F.Cl.Cl
23,223 to 224 °C,Cc1ccc(-n2cnc(Cn3ccnc3)c2)cc1F.Cl.Cl
24,240 to 241 °C,COc1ccc(-n2cnc(Cn3ccnc3C)c2)cc1Cl.Cl.Cl
25,245 to 246 °C,COc1ccc(-n2cnc(Cn3ccnc3)c2)cc1Cl.Cl.Cl

row,melting point,SMILES
1,248 to 249 °C,CCc1nccn1Cc1cn(-c2ccc(Cl)cc2F)cn1.Cl.Cl
2,> 250 °C,CCc1nccn1Cc1cn(-c2ccc(Br)cc2)cn1.Cl.Cl
3,237 to 239 °C,Brc1ccc(-n2cnc(Cn3ccnc3)c2)cc1.Cl.Cl
4,199 to 200 °C,CCc1nccn1Cc1cn(-c2ccc(OC(F)F)cc2)cn1.Cl.Cl
5,228 to 229 °C,Cc1nccn1Cc1cn(-c2ccc(OC(F)F)cc2)cn1.Cl.Cl
6,222 to 223 °C,CCc1nccn1Cc1cn(-c2ccc(OCc3ccccc3)cc2)cn1.Cl.Cl
7,> 250 °C,CCc1nccn1Cc1cn(-c2ccc(C)c(OC)c2)cn1.Cl.Cl
8,240 to 242 °C,CCc1nccn1Cc1cn(-c2ccc(C(F)(F)F)cc2)cn1.Cl.Cl
9,220 to 222 °C,Cl.Cl.FC(F)(F)c1ccc(-n2cnc(Cn3ccnc3)c2)cc1
10,> 108 °C (dec.),CCc1nccn1Cc1cn(-c2ccc3c(c2)COC3)cn1.Cl.Cl
11,238 to 240 °C,COc1ccc(-n2cnc(Cn3ccnc3C)c2)cc1F.Cl.Cl
12,> 250 °C,Cc1ncn(Cc2cn(-c3ccc(Cl)c(Cl)c3)cn2)c1C.Cl.Cl
13,218 to 220 °C,CCc1nccn1Cc1cn(-c2ccc(OC)c(F)c2)cn1.Cl.Cl
14,246 to 248 °C,CCc1nccn1Cc1cn(-c2cccc(OC)c2)cn1.Cl.Cl
15,242 to 243 °C,COc1cccc(-n2cnc(Cn3ccnc3C)c2)c1.Cl.Cl
16,219 to 220 °C,COc1cccc(-n2cnc(Cn3ccnc3)c2)c1.Cl.Cl
17,> 222 °C (dec.),COc1ccc(-n2cnc(Cn3ccnc3C)c2)cc1C(F)(F)F.Cl.Cl
18,> 226 °C (dec.),CCc1nccn1Cc1cn(-c2ccc(OC)c(C(F)(F)F)c2)cn1.Cl.Cl
19,178 to 179 °C,CCc1nccn1Cc1cn(-c2ccc(C)c(Cl)c2)cn1.Cl.Cl
20,197 to 198 °C,Cl.Cl.Clc1ccc(-n2cnc(Cn3ccnc3-c3ccccc3)c2)cc1Cl
21,179 to 180 °C,CCc1nccn1Cc1cn(-c2ccc(Cl)c(C(F)(F)F)c2)cn1.Cl.Cl
22,210 to 212 °C,Cl.Cl.Fc1ccc(-n2cnc(Cn3ccnc3)c2)cc1Cl
23,> 180 °C (dec.),CCc1nccn1Cc1cn(-c2ccc(C(C)C)c(C)c2)cn1.Cl.Cl
